Measurements as given in ChEMBL document CHEMBL1201862, “PubChem BioAssay data set” (2004).
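A five-concentration, 48-hour dose response in 96-well plates underlies each endpoint, interpolated linearly between surrounding concentrations. At the GI50, growth is halved.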 The source made the active and inactive calls. Cut-off read from the data, not from the text of the source: active = GI50 up to about 1.1 µM and inactive = higher.

Columns and labels:
Test in all cases: inhibition of tumour cell growth, NCI panel, 48 h
MDA-N = system: MDA-N
NCI-H23 = system: NCI-H23
COLO 205 = system: COLO 205
T47D = system: T47D
BT-549 = system: BT-549
MDA-MB-435 = system: MDA-MB-435
786-0 = system: 786-0
OVCAR-3 = system: OVCAR-3
ACHN = system: ACHN
LOX IMVI = system: LOX IMVI
NCI-H522 = system: NCI-H522
PC-3 = system: PC-3
NCI/ADR-RES = system: NCI/ADR-RES
SW-620 = system: SW-620
SR = system: SR
SNB-78 = system: SNB-78
LXFL 529 = system: LXFL 529
DLD-1 = system: DLD-1
DMS-273 = system: DMS-273

Measured: GI50

CC(C)C(=O)Cc1ccc2ccccc2n1
inactive: MDA-N 55.2 µM | NCI-H23 > 100 µM | COLO 205 > 100 µM | T47D > 100 µM | BT-549 > 100 µM | MDA-MB-435 70 µM | 786-0 > 100 µM | OVCAR-3 > 100 µM | ACHN > 100 µM | LOX IMVI > 100 µM | NCI-H522 50.5 µM | PC-3 89.7 µM | NCI/ADR-RES > 100 µM | SW-620 > 100 µM

Nc1nc(O)c2[nH]cnc2[n+]1[O-]
inactive: MDA-N > 100 µM | NCI-H23 > 100 µM | COLO 205 > 100 µM | T47D > 100 µM | BT-549 > 100 µM | 786-0 > 100 µM | SR 75.3 µM | OVCAR-3 > 100 µM | ACHN > 100 µM | LOX IMVI > 100 µM | NCI-H522 > 100 µM | PC-3 > 100 µM | NCI/ADR-RES > 100 µM | SW-620 > 100 µM

COc1cccc(C2c3cc4c(cc3OC(N3CCOCC3)C2C)OCO4)c1 (configuration not stated)
inactive: MDA-N 3.07 µM | COLO 205 11.3 µM | T47D 27.5 µM | BT-549 3.39 µM | SR 9.1 µM | OVCAR-3 7.74 µM | ACHN 14.7 µM | LOX IMVI 5.28 µM | NCI-H522 8.24 µM | PC-3 5.53 µM | NCI/ADR-RES 13.7 µM | SW-620 3.19 µM

COc1ccc(-c2cs/c(=N\c3ccccc3)n2CCCN(C)C)cc1
inactive: MDA-N 30.6 µM | NCI-H23 23.1 µM | BT-549 19.2 µM | MDA-MB-435 18.4 µM | SR 22.8 µM | OVCAR-3 17.1 µM | ACHN 21.8 µM | PC-3 12.6 µM | NCI/ADR-RES 15.2 µM | SW-620 > 10 µM

Cc1cc(C)nc(NS(=O)(=O)c2ccc(NC(=O)c3cccc4c(Nc5ccc(S(=O)(=O)Nc6cc(C)on6)cc5)c5ccccc5nc34)cc2)n1
inactive: NCI-H23 18.3 µM | SR 27.2 µM | SNB-78 41.7 µM | OVCAR-3 19.9 µM | ACHN 38.6 µM | LXFL 529 16.1 µM | DLD-1 30.1 µM | LOX IMVI 18.9 µM | NCI-H522 16.3 µM

O=c1cc(O)c1=O
inactive: MDA-N > 100 µM | NCI-H23 > 100 µM | COLO 205 > 100 µM | T47D > 100 µM | BT-549 > 100 µM | MDA-MB-435 > 100 µM | SR > 100 µM | OVCAR-3 > 100 µM | ACHN > 100 µM | LOX IMVI > 100 µM | NCI-H522 > 100 µM | PC-3 > 100 µM | SW-620 > 100 µM

CSc1sc(C)cc1-c1nsc(=O)o1
inactive: MDA-N > 100 µM | NCI-H23 > 100 µM | COLO 205 > 100 µM | MDA-MB-435 > 100 µM | 786-0 > 100 µM | SR > 100 µM | ACHN > 100 µM | LOX IMVI > 100 µM | NCI-H522 > 100 µM | PC-3 > 100 µM | NCI/ADR-RES > 100 µM | SW-620 > 100 µM

C=CCCON(C(=O)OC(C)(C)C)c1ccccc1
inactive: MDA-N > 100 µM | NCI-H23 > 100 µM | COLO 205 > 100 µM | T47D 95.1 µM | BT-549 > 100 µM | MDA-MB-435 > 100 µM | 786-0 74 µM | OVCAR-3 > 100 µM | ACHN > 100 µM | LOX IMVI > 100 µM | NCI-H522 43.3 µM | PC-3 4.12 µM | NCI/ADR-RES 67 µM | SW-620 > 100 µM

COc1ccc(NC(=O)C(=O)NNC(=O)c2sc(NNC(C)=O)nc2C)c([N+](=O)[O-])c1
inactive: NCI-H23 > 100 µM | COLO 205 > 100 µM | 786-0 > 100 µM | SR 45.3 µM | SNB-78 > 100 µM | OVCAR-3 33.5 µM | ACHN 45.5 µM | LXFL 529 34.8 µM | LOX IMVI 40.6 µM | NCI-H522 30.1 µM | DMS-273 > 100 µM | SW-620 35.6 µM

C#CCN(Cc1ccc2nc(-c3ccccc3)c(Cl)nc2c1)c1ccc(F)cc1
inactive: MDA-N > 100 µM | NCI-H23 71.6 µM | COLO 205 51.3 µM | T47D 38 µM | BT-549 > 100 µM | MDA-MB-435 > 100 µM | 786-0 > 100 µM | SR 45.8 µM | OVCAR-3 > 100 µM | ACHN 71.9 µM | LOX IMVI > 100 µM | NCI-H522 40.6 µM | PC-3 > 100 µM | NCI/ADR-RES > 100 µM | SW-620 > 100 µM

CCOC(=O)c1sc2nc(SC)nc(N3CCCCC3)c2c1N
inactive: MDA-N > 100 µM | NCI-H23 > 100 µM | COLO 205 > 100 µM | T47D > 100 µM | BT-549 > 100 µM | MDA-MB-435 > 100 µM | 786-0 > 100 µM | SR > 100 µM | OVCAR-3 > 100 µM | ACHN > 100 µM | LOX IMVI > 100 µM | NCI-H522 > 100 µM | PC-3 > 100 µM | NCI/ADR-RES > 100 µM | SW-620 > 100 µM

Brc1cc(CCOC2CCCCO2)c(-c2sccc2CCOC2CCCCO2)s1 (configuration not stated)
inactive: MDA-N 40.3 µM | NCI-H23 34.7 µM | COLO 205 43.4 µM | T47D > 100 µM | BT-549 49.7 µM | MDA-MB-435 37.7 µM | 786-0 35.1 µM | SR 9.75 µM | OVCAR-3 71.4 µM | ACHN 50.8 µM | LOX IMVI 26.3 µM | NCI-H522 14.4 µM | PC-3 42.2 µM | NCI/ADR-RES 40.7 µM | SW-620 > 65.8 µM

CCc1ncc(C(C)(O)c2ccccc2)n1Cc1ccccc1 (configuration not stated)
inactive: NCI-H23 5.56 µM | COLO 205 27.8 µM | T47D 73.6 µM | BT-549 45.3 µM | MDA-MB-435 22.4 µM | SR 14.8 µM | OVCAR-3 40.6 µM | ACHN 82.2 µM | LOX IMVI 29.8 µM | NCI-H522 42.1 µM | PC-3 43.4 µM | NCI/ADR-RES 37.7 µM | SW-620 31.6 µM

Cn1c(=O)c(Cl)c(N=[N+]=[N-])c2ccccc21
inactive: MDA-N 84.1 µM | NCI-H23 > 100 µM | COLO 205 > 100 µM | T47D 64 µM | SR 58.5 µM | OVCAR-3 33.3 µM | ACHN 85.7 µM | LOX IMVI 55.7 µM | NCI-H522 74.3 µM | PC-3 78.7 µM | NCI/ADR-RES > 100 µM | SW-620 > 100 µM

COc1cc2c(cc1OC)C1(COc3cc(O)c(O)c(O)c3C1=O)C2 (configuration not stated)
inactive: MDA-N > 50 µM | NCI-H23 45.4 µM | COLO 205 > 50 µM | T47D 5.11 µM | MDA-MB-435 > 50 µM | 786-0 > 50 µM | SR > 50 µM | OVCAR-3 > 50 µM | ACHN > 50 µM | LOX IMVI > 50 µM | NCI-H522 > 50 µM | PC-3 > 50 µM | NCI/ADR-RES > 50 µM | SW-620 > 50 µM

CC(O)(P(=O)(O)O)P(=O)(O)OCC(O)CN1CCOCC1 (configuration not stated)
inactive: MDA-N > 100 µM | NCI-H23 > 100 µM | COLO 205 > 100 µM | BT-549 > 100 µM | MDA-MB-435 > 100 µM | 786-0 > 100 µM | SR > 100 µM | ACHN > 100 µM | LOX IMVI > 100 µM | NCI-H522 > 100 µM | PC-3 > 100 µM | NCI/ADR-RES > 100 µM | SW-620 > 100 µM

O=c1oc2ccc(-n3c(=O)c4ccccc4c4ccccc4c3=O)cc2c2ccccc12
inactive: MDA-N > 100 µM | NCI-H23 > 100 µM | COLO 205 > 100 µM | T47D > 100 µM | BT-549 57.1 µM | MDA-MB-435 > 100 µM | 786-0 66.2 µM | OVCAR-3 > 100 µM | ACHN > 100 µM | LOX IMVI > 100 µM | NCI-H522 > 100 µM | PC-3 > 100 µM | NCI/ADR-RES > 100 µM | SW-620 > 100 µM

CN(C)CCCNC(=S)S
inactive: MDA-N > 100 µM | NCI-H23 > 100 µM | COLO 205 > 100 µM | BT-549 > 100 µM | MDA-MB-435 > 100 µM | 786-0 > 100 µM | SR > 100 µM | OVCAR-3 > 100 µM | ACHN > 100 µM | LOX IMVI > 100 µM | NCI-H522 > 100 µM | PC-3 > 100 µM | NCI/ADR-RES > 100 µM | SW-620 > 100 µM

COC(=O)N[C@H](C(=O)NC(OCc1ccccc1)C1COC(C)(C)O1)C(C)O[Si](C)(C)C(C)(C)C (some centres not stated)
inactive: MDA-N > 100 µM | NCI-H23 > 100 µM | COLO 205 > 100 µM | T47D > 100 µM | 786-0 > 100 µM | SR 26.4 µM | ACHN > 100 µM | PC-3 32.4 µM | NCI/ADR-RES > 100 µM | SW-620 75.3 µM

OC1(c2ccc(Cl)cc2)c2ccc3ccccc3c2C2=N[C@H]3CCCC[C@@H]3N21 (some centres not stated)
inactive: MDA-N 10.6 µM | NCI-H23 37 µM | COLO 205 5.81 µM | T47D 3.13 µM | MDA-MB-435 10.7 µM | OVCAR-3 1.63 µM | ACHN 18.3 µM | LOX IMVI 3.24 µM | NCI-H522 10.3 µM | PC-3 6.32 µM | NCI/ADR-RES 1.63 µM | SW-620 16.8 µM

O=c1c2cc(I)ccc2nc(-c2cccs2)n1O
inactive: MDA-N 51.2 µM | NCI-H23 24.2 µM | COLO 205 > 100 µM | T47D 26.2 µM | BT-549 33.2 µM | MDA-MB-435 34.8 µM | 786-0 55.2 µM | SR 33.8 µM | OVCAR-3 15.6 µM | ACHN 46.3 µM | LOX IMVI 28.1 µM | NCI-H522 37.5 µM | PC-3 52.1 µM | NCI/ADR-RES 41.1 µM | SW-620 37 µM
